Patent US20130072495A1, “FUSED BICYCLIC KINASE INHIBITORS” (OSI Pharmaceuticals, LLC, priority 2010, published 2013)

Tests used:
Type in all cases: cell-based
MET = biological target: T1, MET (Homo sapiens, UniProt P08581); test: MET cell mechanistic assay (MKN45), phosphorylated MET levels; details: MKN45 cell line, four hours incubation, at least duplicate experiments, read-out: MET mech IC50
T1 construct: endogenous in cells; host or cells: MKN45
Protocol: The cellular activity of the compounds of the present invention against MET may be determined by the following procedure. MKN45 cells were plated in Falcon 3072 96-well plates in growth media (RPMI, 10% FBS, 1% L-glutamine) at a density of 5000 cells/well and incubated at 37° C., 5% CO2 overnight. The following day, one-tenth volume of a 10× concentration of compounds was added to the wells in a 6-point dilution series. The dilutions series was composed of an initial […] in DMSO, followed by a […] in growth media, for a final DMSO concentration on cells of 0.5%. Control wells were treated with 0.5% DMSO. The typical range of dilution was 10 μM to 3 nM. Once compound was added to the cells, plates were incubated for four hours at 37° C., 5% CO2. Plates were then washed in PBS, and lysed in triton-based lysis buffer. Lysates were transferred to a precoated capture plate made by Biosource (Cat # KHO0281). The phosphorylated MET levels were measured by incubating with a rabbit polyclonal antibody against phosphorylated MET ([pYpYpY1230/1234/1235]) followed by an anti-rabbit antibody conjugated to HRP. Signal was measured on a Wallac Victor plate reader at 450 nm. The DMSO signal of the control wells was defined as 100% and the percent of inhibition of phosphorylated MET was expressed as percent of control. IC50 values were determined from the percent of control data using a standard four-parameter model.
(§1) The IC50 values of exemplary compounds of the present invention determined in a MET cell mechanistic assay using the MKN45 cell line according to the procedures described herein in at least duplicate experiments are abbreviated as follows and are shown in Table 2: A, IC50≦0.1 μM; B, 0.1 μM<IC50≦0.5 μM; C, 0.5 μM<IC50≦2 μM; D, IC50>2 μM; ND, not determined. The Example # of Table 2 corresponds to the compound example number as illustrated in the Experimental section above.

MKN45 cells = test: MKN45 cell proliferation assay (CellTiter-Glo); details: Homo sapiens, MKN-45, 72 h; MKN45 cell line, 3 days incubation, at least duplicate experiments; read-out: Prolif. IC50
Protocol: The effect of inhibitors on the proliferation of MKN45 cells was determined using the following protocol. MKN45 cells were plated in Corning 3917 96-well white tissue culture treated plates in growth medium (RPMI, 10% FCS) at a density of 5000 cells/well in a total volume of 135 μL and incubated at 37° C., 5% CO2, 95% humidity overnight. The following day, one-tenth volume of a 10× concentration of compounds was added to the wells in an 8-point dilution series. The dilution series was composed of an initial 1:5 dilution of a 10 mM stock of compound in DMSO, followed by serial 1:4 dilutions in DMSO, then a 1:20 dilution in growth medium prior to the 1:10 dilution into the cell plate. Final DMSO concentration on the cells was 0.1%, there were control wells treated with both 0.1% DMSO and no DMSO. The typical dilution range is 10 μM to 0.6 nM. Once the compound was added to the cells, plates were incubated for 3 days at 37° C., 5% CO2 at 95% humidity. On the third day, after allowing all cells and reagents to come to room temperature, 25 μL of CellTiter-Glo reagent (Promega # G7573) was added to the wells. Plates were shaken on a platform for 10 minutes prior to reading luminescence for 0.1 seconds. The signal of the control wells was taken as 100% growth and growth inhibition was expressed as percent of control. IC50 values were determined from the percent of control data using a standard four-parameter model.
as §1, with “a” for “a MET”, “cell proliferation” for “cell mechanistic”, “Table 1:” for “Table 2:”, “Table 1” for “Table 2”
Treatment of this cell line with a selective MET inhibitor led to induction of apoptosis and inhibition of proliferation, whereas non-MET-amplified cell lines were not affected. Smolen et al., Proc. Natl. Acad. Sci. USA, 103(7):2316-2321 (2006). This cell line is thus “driven” by MET, and antiproliferative effects correlate very well with the inhibition of MET phosphorylation so that the cell proliferation IC50 values can be used as surrogate for the MET cell mechanistic IC50 values. Under the assay conditions described herein, the IC50 values correlate nearly 1:1.

sfRON = biological target: T2, sfRON (Homo sapiens, UniProt Q04912); test: sfRON cell mechanistic assay (HeLa), phosphorylated RON levels; details: sfRON transfected HeLa cells, four hours incubation, at least duplicate experiments, read-out: sfRON mech IC50
T2 construct: expressed in transfected cells; host or cells: HeLa (transient transfection, Lipofectamine-2000, sfRON-pcDNA plasmid)
T2 sequence (Q04912 913-1400 limits assumed): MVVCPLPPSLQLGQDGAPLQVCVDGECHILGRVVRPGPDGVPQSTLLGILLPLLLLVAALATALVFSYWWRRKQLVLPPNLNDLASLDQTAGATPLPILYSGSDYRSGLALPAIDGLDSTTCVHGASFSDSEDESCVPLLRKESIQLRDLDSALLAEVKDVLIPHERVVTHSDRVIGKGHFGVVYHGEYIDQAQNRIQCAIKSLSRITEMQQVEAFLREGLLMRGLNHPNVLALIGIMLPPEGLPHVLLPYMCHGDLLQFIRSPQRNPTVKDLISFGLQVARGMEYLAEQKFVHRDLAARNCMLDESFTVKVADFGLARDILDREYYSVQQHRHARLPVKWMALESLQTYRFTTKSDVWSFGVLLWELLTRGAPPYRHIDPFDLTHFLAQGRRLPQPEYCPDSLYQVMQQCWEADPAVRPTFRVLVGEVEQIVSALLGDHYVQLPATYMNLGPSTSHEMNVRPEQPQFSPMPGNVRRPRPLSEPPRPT
Protocol: The cellular activity of the compounds of the present invention against RON may be determined by the following procedure. HeLa cells were plated in Falcon 3072 96-well plates in growth media (DMEM, 10% FBS, 1% L-glutamine) at a density of 10000 cells/well and incubated at 37° C., 5% CO2 overnight. The following day, cells were transfected with 0.2 μg sfRON-pcDNA plasmid DNA with 0.5 μL Lipofectamine-2000 per well in the presence of 50 μL OPTI-MEM, incubated at 37° C., 5% CO2 overnight. Costar 3915 96-well assay plates were coated with rabbit Anti-RON antibody at 2.0 μg/mL, sealed, and incubated overnight at 4° C. On the third day, coated plates were washed with PBS and blocked with 3% BSA. For the sfRON transfected cells, one-tenth volume of a 10× concentration of compounds was added to the wells in a 6-point dilution series. The dilution series was composed of an initial 1:5 dilution of a 10 mM DMSO stock solution of compound in DMSO, followed by a 1:10 dilution in growth media, for a final DMSO concentration on cells of 0.5%. Control wells were treated with 0.5% DMSO. The typical range of dilution was 10 μM to 3 nM. Once compound was added to the cells, plates were incubated for four hours at 37° C., 5% CO2. Plates were then washed in PBS, and lysed in triton-based lysis buffer. Lysates were transferred to the blocked capture plates. The phosphorylated RON levels were measured by incubating with a Goat polyclonal antibody against phosphorylated RON ([pYpY1238/1239]) followed by an anti-Goat antibody conjugated to HRP. Signal was measured on a Wallac Victor plate reader with luminance. The DMSO signal of the control wells was defined as 100% and the percent of inhibition of phosphorylated RON was expressed as percent of control. IC50 values were determined from the percent of control data using a standard four-parameter model.
The IC50 values of exemplary compounds of the present invention determined in a sfRON cell mechanistic assay using the HeLa cell line according to the procedures described herein in at least duplicate experiments are abbreviated as follows and are shown in Table 3: A, IC50≦0.1 μM; B, 0.1 μM<IC50≦0.5 μM; C, 0.5 μM<IC50≦1 μM; D, IC50>1 μM; ND, not determined. The Example # of Table 3 corresponds to the compound example number as illustrated in the Examples section.

T1 sequence (P08581 25-1390): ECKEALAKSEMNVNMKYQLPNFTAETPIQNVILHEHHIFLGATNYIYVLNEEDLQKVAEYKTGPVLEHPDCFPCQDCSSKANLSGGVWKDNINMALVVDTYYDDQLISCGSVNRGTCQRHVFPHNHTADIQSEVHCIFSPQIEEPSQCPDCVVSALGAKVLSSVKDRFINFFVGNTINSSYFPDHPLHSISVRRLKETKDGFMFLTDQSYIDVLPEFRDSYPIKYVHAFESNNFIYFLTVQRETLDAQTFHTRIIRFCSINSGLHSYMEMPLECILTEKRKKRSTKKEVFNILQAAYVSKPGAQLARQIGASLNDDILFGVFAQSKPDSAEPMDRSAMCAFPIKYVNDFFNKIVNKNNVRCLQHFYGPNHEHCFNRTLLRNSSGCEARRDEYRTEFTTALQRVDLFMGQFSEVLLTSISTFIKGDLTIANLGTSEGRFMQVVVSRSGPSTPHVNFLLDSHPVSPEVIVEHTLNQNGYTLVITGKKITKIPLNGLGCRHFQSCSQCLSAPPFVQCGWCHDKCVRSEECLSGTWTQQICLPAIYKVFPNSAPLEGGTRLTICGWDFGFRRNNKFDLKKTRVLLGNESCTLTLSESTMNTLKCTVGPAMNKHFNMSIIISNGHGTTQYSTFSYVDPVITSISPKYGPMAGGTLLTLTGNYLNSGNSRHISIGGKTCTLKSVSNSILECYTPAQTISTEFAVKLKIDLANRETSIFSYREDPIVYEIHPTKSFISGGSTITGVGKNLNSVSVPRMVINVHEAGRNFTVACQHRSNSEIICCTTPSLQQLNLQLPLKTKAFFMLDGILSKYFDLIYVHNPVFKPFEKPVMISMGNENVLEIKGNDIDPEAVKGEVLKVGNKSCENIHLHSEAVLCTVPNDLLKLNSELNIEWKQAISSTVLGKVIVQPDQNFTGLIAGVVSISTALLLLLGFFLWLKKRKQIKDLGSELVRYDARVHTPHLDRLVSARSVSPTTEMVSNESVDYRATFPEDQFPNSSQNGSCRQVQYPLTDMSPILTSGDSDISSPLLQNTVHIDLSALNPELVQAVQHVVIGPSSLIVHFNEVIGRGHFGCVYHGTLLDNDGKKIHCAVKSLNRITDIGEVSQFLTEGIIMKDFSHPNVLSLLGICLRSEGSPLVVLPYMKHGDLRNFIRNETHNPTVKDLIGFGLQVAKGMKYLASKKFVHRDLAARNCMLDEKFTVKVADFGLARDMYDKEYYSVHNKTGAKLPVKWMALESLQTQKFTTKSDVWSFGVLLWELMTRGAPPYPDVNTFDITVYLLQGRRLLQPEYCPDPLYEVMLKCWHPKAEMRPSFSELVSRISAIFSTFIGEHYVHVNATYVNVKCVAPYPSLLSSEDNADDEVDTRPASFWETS

IC50 (MKN45 cells) [µM] | IC50 (sfRON) [µM] | Compound | IC50 (MET) [µM]
 |  | 7-[(2,6-dichloro-3-fluorophenyl)methoxymethyl]-2-(1-piperidin-4-yl-1H-pyrazol-4-yl)-5H-pyrrolo[2,3-b]pyrazine [Example 1] | 0.1 to 0.5
≤ 0.1 |  | COc1ccc(F)c(Cl)c1C(C)c1n[nH]c2ncc(-c3cnn([C@H]4CC[C@H](O)CC4)c3)cc12 (relative stereo) [Example 9, trans-4-(4-{3-[1-(2-Chloro-3-fluoro-6-methoxyphenyl)ethyl]-1H-pyrazolo[3,4-b]pyridin-5-yl}-1H-pyrazol-1-yl)cyclohexanol] | 
0.5 to 2 | > 1 | C[C@H](c1c(Cl)ccc(F)c1Cl)n1ccc2ncc(-c3cnn(C)c3)cc21 [Example 4, 1-[(1R)-1-(2,6-dichloro-3-fluorophenyl)ethyl]-6-(1-methyl-1H-pyrazol-4-yl)-1H-pyrrolo[3,2-b]pyridine] | 
≤ 0.1 | 0.5 to 1 | C[C@H](c1c(Cl)ccc(F)c1Cl)n1ccc2ncc(-c3cnn(C4CCNCC4)c3)cc21 [Example 5, 1-[(1R)-1-(2,6-Dichloro-3-fluorophenyl)ethyl]-6-[1-(piperidin-4-yl)-1H-pyrazol-4-yl]-1H-pyrrolo[3,2-b]pyridine] | 
0.1 to 0.5 | 0.5 to 1 | C[C@H](c1c(Cl)ccc(F)c1Cl)n1ccc2ncc(-c3cnn(C4CCN(C=O)CC4)c3)cc21 [Example 6, 4-(4-{1-[(1R)-1-(2,6-Dichloro-3-fluorophenyl)ethyl]-1H-pyrrolo[3,2-b]pyridin-6-yl}-1H-pyrazol-1-yl)piperidine-1-carbaldehyde] | 
0.1 to 0.5 | 0.1 to 0.5 | C[C@H](c1c(Cl)ccc(F)c1Cl)n1ccc2ncc(-c3cnn([C@H]4CC[C@H](O)CC4)c3)cc21 [Example 7, trans-4-(4-{1-[(1R)-1-(2,6-Dichloro-3-fluorophenyl)ethyl]-1H-pyrrolo[3,2-b]pyridin-6-yl}-1H-pyrazol-1-yl)cyclohexanol] | 
0.1 to 0.5 | 0.5 to 1 | C[C@H](c1c(Cl)ccc(F)c1Cl)n1ccc2ncc(-c3cnn(C[C@H](O)CO)c3)cc21 [Example 8, (2S)-3-(4-{1-[(1R)-1-(2,6-Dichloro-3-fluorophenyl)ethyl]-1H-pyrrolo[3,2-b]pyridin-6-yl}-1H-pyrazol-1-yl)propane-1,2-diol] | 
≤ 0.1 | 0.1 to 0.5 | COc1ccc(F)c(Cl)c1[C@@H](C)c1n[nH]c2ncc(-c3cnn([C@H]4CC[C@H](O)CC4)c3)cc12 [Example 10, trans-4-(4-{3-[(1R)-1-(2-Chloro-3-fluoro-6-methoxyphenyl)ethyl]-1H-pyrazolo[3,4-b]pyridin-5-yl}-1H-pyrazol-1-yl)cyclohexanol] | 
> 2 |  | COc1ccc(F)c(Cl)c1[C@H](C)c1n[nH]c2ncc(-c3cnn([C@H]4CC[C@H](O)CC4)c3)cc12 [Example 11, trans-4-(4-{3-[(1S)-1-(2-Chloro-3-fluoro-6-methoxyphenyl)ethyl]-1H-pyrazolo[3,4-b]pyridin-5-yl}-1H-pyrazol-1-yl)cyclohexanol] | 
≤ 0.1 |  | COc1ccc(F)c(Cl)c1[C@@H](C)c1n[nH]c2ncc(-c3cnn(C4CCNCC4)c3)cc12 [Example 12, 3-[(1R)-1-(2-chloro-3-fluoro-6-methoxyphenyl)ethyl]-5-[1-(piperidin-4-yl)-1H-pyrazol-4-yl]-1H-pyrazolo[3,4-b]pyridine] | 
0.1 to 0.5 |  | COc1ccc(F)c(Cl)c1[C@@H](C)c1n[nH]c2ncc(-c3cnn(C[C@H](O)CO)c3)cc12 [Example 13, (2S)-3-(4-{3-[(1R)-1-(2-chloro-3-fluoro-6-methoxyphenyl)ethyl]-1H-pyrazolo[3,4-b]pyridin-5-yl}-1H-pyrazol-1-yl)propane-1,2-diol] | 
0.1 to 0.5 |  | COc1ccc(F)c(Cl)c1[C@@H](C)c1n[nH]c2ncc(-c3cnn(C)c3)cc12 [Example 14, 3-[(1R)-1-(2-chloro-3-fluoro-6-methoxyphenyl)ethyl]-5-(1-methyl-1H-pyrazol-4-yl)-1H-pyrazolo[3,4-b]pyridine] | 
> 2 |  | CC(c1c(Cl)ccc(F)c1Cl)c1c[nH]c2nnc(-c3cnn(C)c3)cc12 (stereo not shown) [Example 15, 5-[1-(2,6-Dichloro-3-fluorophenyl)ethyl]-3-(1-methyl-1H-pyrazol-4-yl)-7H-pyrrolo[2,3-c]pyridazine] | 
